Measurements reported in US20240041042A1, “1-(PYRIDYL)-5-AZINYLPYRAZOLE DERIVATIVES, AND THEIR USE FOR CONTROL OF UNDESIRED PLANT GROWTH” (Bayer Aktiengesellschaft, priority 2020, published 2024).
Like-named read-outs stand apart in the source and are kept apart here.

How the values were obtained:
Format in all cases: in vivo
Brassica napus (BRSNW) = settings: crop plant compatibility, in comparison to untreated controls
Summary of the method: (§1)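 Crop injury rated visually in percent against untreated plants roughly 3 weeks after treatment (0% no effect, 100% plants dead). Compounds, as WP or EC with 0.5% additive in 600 l/ha water, were applied to the covering soil right after sowing; greenhouse growth. Suffixes a, b, c denote different dosages.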

Glycine max (GLXMA) [1] = settings: pre-emergence, crop plant compatibility, in comparison to untreated controls
Summary of the method: as §1

Oryza sativa (ORYSA) [2] = settings: pre-emergence, crop plant compatibility, in comparison to untreated controls
Summary of the method: as §1

Zea mays (ZEAMX) [3] = settings: pre-emergence, crop plant compatibility, in comparison to untreated controls
Summary of the method: as §1

[4] = test system: Triticum aestivum (TRZAS); settings: pre-emergence, crop plant compatibility, in comparison to untreated controls
Summary of the method: as §1

Viola tricolor (VIOTR) [5] = test: Pre-emergence herbicidal action against VIOTR; settings: 320 g/ha, Viola tricolor
Summary of the method: (§2)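 Pre-emergence soil-surface spray, WP/EC formulation, 0.5% additive, 600 l/ha water, rates of 320 g/ha or lower. Greenhouse, ~3 wk. Visual score, % of untreated control (100% = plants dead, 0% = like control).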

Viola tricolor (VIOTR) [6] = test: Post-emergence herbicidal action against VIOTR; settings: 320 g/ha
Summary of the method: (§3)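 Rates were 320 g/ha or below, applied as aqueous WP/EC spray with 0.5% additive (600 l/ha) onto one-leaf-stage plants. About 3 weeks later in the greenhouse, damage was scored visually against untreated plants on a 0–100% scale, where 100% means plants died.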

[7] = test system: Verconica persica (VERPE); test: Pre-emergence herbicidal action against VERPE; settings: dosage 320 g/ha
Summary of the method: as §2

[8] = test system: Verconica persica (VERPE); test: Post-emergence herbicidal action against VERPE; settings: 320 g/ha, VERPE
Summary of the method: as §3

Oryza sativa (ORYSA) [9] = settings: crop plant compatibility, effect in comparison to untreated controls
Summary of the method: (§4)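 One-leaf-stage crops (2–3 wk post-sowing, sandy loam, greenhouse) sprayed on green parts; 0.5% additive, 600 l/ha water. Rated by eye ~3 wk later, % vs untreated; suffixes a/b/c mark different dosages.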

Zea mays (ZEAMX) [10] = settings: crop plant compatibility, effect vs untreated controls
Summary of the method: as §4

[11] = test system: Triticum aestivum (TRZAS); settings: crop plant compatibility, effect vs untreated controls
Summary of the method: as §4

Glycine max (GLXMA) [12] = test: Post-emergence crop plant compatibility, GLXMA; settings: for Post-emergence action against GLXMA in %: 80 g/ha, effect in comparison to untreated controls; for Post-emergence action against GLXMA: 320 g/ha, effect vs untreated controls
Method: Seeds of monocotyledonous and dicotyledonous weeds and crop plants are placed in sandy loam in plastic or organic planting pots, covered with soil and cultivated in a greenhouse under controlled growth conditions. 2 to 3 weeks after sowing, the test plants are treated at the one-leaf stage. The compounds of the invention, formulated in the form of wettable powders (WP) or as emulsion concentrates (EC), are then sprayed onto the green parts of the plants as aqueous suspension or emulsion with addition of 0.5% additive at a water application rate of 600 l/ha (converted). After the test plants have been kept in the greenhouse under optimum growth conditions for about 3 weeks, the activity of the preparations is rated visually in comparison to untreated controls. For example, 100% activity=the plants have died, 0% activity=like control plants.
The observed effects on selected crop plants are reported here in comparison to the untreated controls (values in %). The appendices “a”, “b” and “c” give differentiation by dosage used with otherwise the same crop plants tested.

Avena fatua (AVEFA) = test: Pre-emergence herbicidal action against AVEFA; settings: 320 g/ha, visual scoring after about 3 weeks vs untreated controls
Summary of the method: as §2

[13] = test system: Polygonum convolvulus (POLCO); test: Pre-emergence herbicidal action against POLCO; settings: dosage 320 g/ha
Summary of the method: as §2

[14] = test system: Amaranthus retroflexus (AMARE); test: Post-emergence herbicidal action against AMARE
Summary of the method: as §3

[15] = test system: Amaranthus retroflexus (AMARE); test: Pre-emergence herbicidal action against AMARE; settings: 320 g/ha, visual scoring after about 3 weeks vs untreated controls
Summary of the method: as §2

[16] = test system: Pharbitis purpurea (PHBPU); test: Post-emergence herbicidal action against PHBPU; settings: dosage 320 g/ha
Summary of the method: as §3

[17] = test system: Polygonum convolvulus (POLCO); test: Post-emergence herbicidal action against POLCO; settings: dosage 320 g/ha
Summary of the method: as §3

[18] = test system: Echinochloa crus-galli (ECHCG); test: Post-emergence herbicidal action against ECHCG; settings: dosage 320 g/ha
Summary of the method: as §3

[19] = test system: Matricaria inodora (MATIN); test: Pre-emergence herbicidal action against MATIN; settings: dosage 320 g/ha
Summary of the method: as §2

[20] = test system: Echinochloa crus-galli (ECHCG); test: Pre-emergence herbicidal action against ECHCG; settings: dosage 320 g/ha
Summary of the method: as §2

Setaria viridis (SETVI) [21] = test: Pre-emergence herbicidal action against SETVI; settings: dosage 320 g/ha
Summary of the method: as §2

[22] = test system: Abutilon theophrasti (ABUTH); test: Pre-emergence herbicidal action against ABUTH; settings: Dosage column 320 g/ha (title prints 3200 g/ha); scored visually after about 3 weeks; 100% = plants have died
Summary of the method: as §2

Setaria viridis (SETVI) [23] = test: Post-emergence herbicidal action against SETVI; settings: dosage 320 g/ha
Summary of the method: as §3

[24] = 320 g/ha, visual rating about 3 weeks after treatment

Row | SMILES | Pre-emergence action against BRSNW in % (Brassica napus (BRSNW); 80 g/ha) | Pre-emergence action against BRSNW in % (Brassica napus (BRSNW); 320 g/ha) | Pre-emergence action against GLXMA in % (Glycine max (GLXMA) [1]; 80 g/ha) | Pre-emergence action against ORYSA in % (Oryza sativa (ORYSA) [2]; 80 g/ha) | Pre-emergence action against ORYSA in % (Oryza sativa (ORYSA) [2]; 320 g/ha) | Pre-emergence action against ZEAMX in % (Zea mays (ZEAMX) [3]; 80 g/ha) | Pre-emergence action against TRZAS in % ([4]; 80 g/ha) | Pre-emergence action against TRZAS in % ([4]; 320 g/ha) | Post-emergence action against ORYSA in % (Oryza sativa (ORYSA) [9]; 80 g/ha) | Post-emergence action against ORYSA in % (Oryza sativa (ORYSA) [9]; 320 g/ha) | Post-emergence action against ZEAMX in % (Zea mays (ZEAMX) [10]; 80 g/ha) | Post-emergence action against ZEAMX in % (Zea mays (ZEAMX) [10]; 320 g/ha) | Post-emergence action against TRZAS in % ([11]; 80 g/ha) | Post-emergence action against TRZAS in % ([11]; 320 g/ha) | Post-emergence action against GLXMA in % (Glycine max (GLXMA) [12]) | Pre-emergence action against GLXMA in % (Glycine max (GLXMA) [1]; 320 g/ha) | Pre-emergence action against VIOTR in % (Viola tricolor (VIOTR) [5]) | Post-emergence action against VIOTR in % (Viola tricolor (VIOTR) [6]) | Post-emergence action against AMARE in % [14, 24] | Pre-emergence action against AMARE in % [15] | other results
1 | CCOC(=O)COc1nn(-c2ccccn2)c(-c2cncc(F)c2)c1Cl [Example I-147] | 0% | – | 0% | – | – | 0% | 0% | 20% | 0% | 0% | 0% | 20% | 0% | 20% | 0% | 0% | 90% | 90% | 90% | 90% | Pre-emergence action against AVEFA in % (Avena fatua (AVEFA)): 80%; Pre-emergence action against POLCO in % [13]: 90%; Post-emergence action against PHBPU in % [16]: 90%; Post-emergence action against GLXMA (Glycine max (GLXMA) [12]): 10%; Post-emergence action against POLCO in % [17]: 90%
2 | CCOC(=O)CCNC(=O)CSc1nn(-c2ccccn2)c(-c2cncc(F)c2)c1Br [Example I-82] | 20% | 20% | 0% | 0% | – | – | 0% | 20% | 20% | – | – | – | – | – | 0% | – | – | 80% | – | – | Post-emergence action against ECHCG in % [18]: 80%; Pre-emergence action against MATIN in % [19]: 90%; Pre-emergence action against ECHCG in % [20]: 90%; Pre-emergence action against SETVI in % (Setaria viridis (SETVI) [21]): 90%
3 | CCOC(=O)C[S+]([O-])c1nn(-c2ccccn2)c(-c2cncc(F)c2)c1Cl (stereo not drawn) [Example I-150] | 0% | – | 0% | 20% | – | – | 0% | 0% | 0% | 0% | 0% | 0% | 0% | 10% | 0% | 0% | – | 80% | 80% | 80% | Post-emergence action against SETVI in % (Setaria viridis (SETVI) [23]): 80%; Post-emergence action against AMARE in % ([14]; 80 g/ha, visual rating about 3 weeks after treatment vs untreated controls (100% = plants have died, 0% = like control plants)): 80%; Post-emergence action against GLXMA (Glycine max (GLXMA) [12]): 0%; Post-emergence action against POLCO in % [17]: 90%

The next lines start with results.

Row | Pre-emergence action against BRSNW in % (Brassica napus (BRSNW); 80 g/ha) | Pre-emergence action against BRSNW in % (Brassica napus (BRSNW); 320 g/ha) | Pre-emergence action against GLXMA in % (Glycine max (GLXMA) [1]; 80 g/ha) | Pre-emergence action against ORYSA in % (Oryza sativa (ORYSA) [2]; 80 g/ha) | Pre-emergence action against ORYSA in % (Oryza sativa (ORYSA) [2]; 320 g/ha) | Pre-emergence action against ZEAMX in % (Zea mays (ZEAMX) [3]; 80 g/ha) | Pre-emergence action against TRZAS in % ([4]; 80 g/ha) | Pre-emergence action against TRZAS in % ([4]; 320 g/ha) | Post-emergence action against ORYSA in % (Oryza sativa (ORYSA) [9]; 80 g/ha) | Post-emergence action against ORYSA in % (Oryza sativa (ORYSA) [9]; 320 g/ha) | Post-emergence action against ZEAMX in % (Zea mays (ZEAMX) [10]; 80 g/ha) | Post-emergence action against ZEAMX in % (Zea mays (ZEAMX) [10]; 320 g/ha) | Post-emergence action against TRZAS in % ([11]; 80 g/ha) | Post-emergence action against TRZAS in % ([11]; 320 g/ha) | Post-emergence action against GLXMA in % (Glycine max (GLXMA) [12]) | Pre-emergence action against GLXMA in % (Glycine max (GLXMA) [1]; 320 g/ha) | SMILES | Pre-emergence action against VIOTR in % (Viola tricolor (VIOTR) [5]) | Post-emergence action against VIOTR in % (Viola tricolor (VIOTR) [6]) | Post-emergence action against AMARE in % [14, 24] | Pre-emergence action against AMARE in % [15] | other results
4 | 10% | 10% | 0% | 0% | 0% | 20% | 0% | 20% | 0% | 0% | 10% | 10% | 0% | 10% | 0% | – | CCOC(=O)COc1nn(-c2ccc(Br)c(C)n2)c(-c2cncc(F)c2)c1Br [Example I-161] | 90% | 80% | – | – | Pre-emergence action against ZEAMX in % (Zea mays (ZEAMX) [3]; 320 g/ha): 20%; Pre-emergence action against VERPE in % [7]: 80%; Post-emergence action against VERPE in % [8]: 80%
5 | – | – | 0% | 0% | 20% | 20% | 0% | – | 0% | 0% | 0% | 20% | 0% | 10% | 20% | – | O=C(CSc1nn(-c2ccccn2)c(-c2cncc(F)c2)c1Br)NC1CC1 [Example I-201] | – | – | – | – | Pre-emergence action against MATIN in % [19]: 80%; Pre-emergence action against ECHCG in % [20]: 90%; Pre-emergence action against ABUTH [22]: 80%
